Source: patent publication USRE47193E1, “Selectively substituted quinoline compounds” (EISAI R&D MANAGEMENT CO., LTD., priority 2013, dated 2019)
Read-outs that look alike come from different tables or passages of the source.

Molecular target: T1, mouse TLR7 (Mus musculus, UniProt P58681)
T1 sequence (P58681 27-1050): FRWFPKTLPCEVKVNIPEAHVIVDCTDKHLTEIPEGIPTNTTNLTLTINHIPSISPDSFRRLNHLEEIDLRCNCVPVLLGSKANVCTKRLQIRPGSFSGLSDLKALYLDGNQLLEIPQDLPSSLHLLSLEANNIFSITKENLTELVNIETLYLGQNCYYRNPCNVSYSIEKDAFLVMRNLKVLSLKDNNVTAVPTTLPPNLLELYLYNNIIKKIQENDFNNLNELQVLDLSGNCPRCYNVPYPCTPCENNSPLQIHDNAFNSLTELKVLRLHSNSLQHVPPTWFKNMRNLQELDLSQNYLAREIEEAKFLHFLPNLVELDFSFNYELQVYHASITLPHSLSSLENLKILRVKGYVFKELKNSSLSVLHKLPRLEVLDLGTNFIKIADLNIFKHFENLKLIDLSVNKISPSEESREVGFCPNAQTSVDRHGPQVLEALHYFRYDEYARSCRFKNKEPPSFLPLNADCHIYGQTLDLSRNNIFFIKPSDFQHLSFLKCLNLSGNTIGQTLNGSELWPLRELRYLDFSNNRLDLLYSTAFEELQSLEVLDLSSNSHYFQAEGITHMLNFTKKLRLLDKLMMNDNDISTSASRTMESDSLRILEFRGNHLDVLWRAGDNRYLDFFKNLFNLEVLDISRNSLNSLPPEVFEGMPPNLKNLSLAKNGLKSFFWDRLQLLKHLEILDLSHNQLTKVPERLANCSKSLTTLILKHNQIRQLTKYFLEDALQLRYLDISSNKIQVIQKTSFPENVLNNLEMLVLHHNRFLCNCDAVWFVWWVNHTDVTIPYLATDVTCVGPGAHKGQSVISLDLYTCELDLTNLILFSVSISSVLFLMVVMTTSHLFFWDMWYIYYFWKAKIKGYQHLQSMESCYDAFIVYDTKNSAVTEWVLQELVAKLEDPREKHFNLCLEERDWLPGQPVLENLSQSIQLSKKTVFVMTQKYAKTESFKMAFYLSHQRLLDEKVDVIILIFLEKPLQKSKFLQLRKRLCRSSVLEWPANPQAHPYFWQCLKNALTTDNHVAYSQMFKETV
Assay: HEK-293 mouse TLR7 NF-kappaB luciferase reporter assay (CL097)
Format: cell-based
Settings: HEK-mTLR7, average of three tests
Protocol: Effects on mouse TLR7 were also compared. Cells were stimulated overnight with TLR7/8 agonist CL097 at pre-determined ED70-80: 3 ug/ml for HEK-hTLR7, 1.5 ug/ml for HEK-mTLR7 and 12 ug/ml for HEK-hTLR8, before reading luminescence intensity. Three tests were performed and IC50 value was determined using Graphpad Prism 6 nonlinear regression curve fit.
HEK-293 cells (ATCC) were engineered to stably express a NF-kappaB transcription factor inducible E-selectin (ELAM-1) luciferase reporter derived from the plasmid pGL3 (Promega) containing base pairs −2241 bp to −254 bp from the promoter of the human E-selectin gene (Accession No. NM_000450). These cells were then subsequently engineered to stably and individually express human TLR4, TLR7 or TLR9 full-length ORF cDNAs. Human TLR4 cDNA (Accession No. NM_138554) was cloned into pcDNA 3.0 expression vector (Invitrogen). TLR4 transfected cells were also engineered to express human MD-2 co-receptor [MD-2 cDNA (Accession No. NM_015364) was cloned into the pEF-BOS vector] and were supplemented with 10 nM soluble CD14 (R&D Systems) in the media to optimize LPS responsiveness. Human TLR9 cDNA (Accession No. NM_017442) was cloned into the pBluescript II KS vector (Agilent). Human TLR7 cDNA (Accession No. NM_016562) was obtained from OriGene. […]

## C[C@@H]1CN(c2ccc(C#N)c3ncccc23)C[C@H](C(=O)N[C@H]2CNC[C@H]2F)O1.Cl [ER-899742, (2R,6R)-4-(8-cyanoquinolin-5-yl)-N-[(3S,4R)-4-fluoropyrrolidin-3-yl]-6-methylmorpholine-2-carboxamide hydrochloride]
IC50 average
  IC50: 0.071 µM

## CCN(CCO)CCCC(C)Nc1ccnc2cc(Cl)ccc12 (centres unmarked) [HCQ, hydroxychloroquine, reference compound]
read-out: IC50 average
  IC50: 14.1 µM
